Source: ChEMBL document CHEMBL3046389, “Synthesis and biological evaluation of novel hydroquinone dimethyl ethers as potential anticancer and antimicrobial agents” (2013)

Key:
Type in all cases: functional
OVCAR-4 = assay: Growth inhibition of Homo sapiens (human) OVCAR4 cells at 10 uM after 48 hr by SRB assay; conditions: OVCAR-4, 48 h, read-out: GI
IGROV-1 = assay: Anticancer activity against Homo sapiens (human) IGROV1 cells after 48 hr by SRB assay; conditions: IGROV-1, 48 h
NCI-H226 [1] = assay: Growth inhibition of Homo sapiens (human) NCI-H226 cells at 10 uM after 48 hr by SRB assay; conditions: NCI-H226, 48 h, read-out: GI
786-0 = assay: Growth inhibition of Homo sapiens (human) 786-0 cells at 10 uM after 48 hr by SRB assay; conditions: 786-0, 48 h, read-out: GI
MCF7 = assay: Anticancer activity against Homo sapiens (human) MCF7 cells after 48 hr by SRB assay; conditions: MCF7, 48 h; for CC50: read-out: LC50 (the source's name)
NCI-H322M = assay: Growth inhibition of Homo sapiens (human) NCI-H322M cells at 10 uM after 48 hr by SRB assay; conditions: read-out: GI
HL-60(TB) = assay: Growth inhibition of Homo sapiens (human) HL-60(TB) cells at 10 uM after 48 hr by SRB assay; conditions: HL-60, 48 h, read-out: GI
SR = assay: Growth inhibition of Homo sapiens (human) SR cells at 10 uM after 48 hr by SRB assay; conditions: read-out: GI
CAKI-1 = assay: Growth inhibition of Homo sapiens (human) CAKI-1 cells at 10 uM after 48 hr by SRB assay; conditions: CAKI-1, 48 h, read-out: GI
NCI-H522 = assay: Growth inhibition of Homo sapiens (human) NCI-H522 cells at 10 uM after 48 hr by SRB assay; conditions: NCI-H522, 48 h, read-out: GI
EKVX = assay: Growth inhibition of Homo sapiens (human) EKVX cells at 10 uM after 48 hr by SRB assay; conditions: read-out: GI
SK-MEL-28 = assay: Growth inhibition of Homo sapiens (human) SK-MEL-28 cells at 10 uM after 48 hr by SRB assay; conditions: SK-MEL-28, 48 h, read-out: GI
SK-MEL-2 = assay: Growth inhibition of Homo sapiens (human) SK-MEL-2 cells at 10 uM after 48 hr by SRB assay; conditions: SK-MEL-2, 48 h, read-out: GI
UACC-257 = assay: Growth inhibition of Homo sapiens (human) UACC257 cells at 10 uM after 48 hr by SRB assay; conditions: UACC-257, 48 h, read-out: GI
DU-145 = assay: Growth inhibition of Homo sapiens (human) DU145 cells at 10 uM after 48 hr by SRB assay; conditions: DU-145, 48 h, read-out: GI
SF-268 = assay: Growth inhibition of Homo sapiens (human) SF268 cells at 10 uM after 48 hr by SRB assay; conditions: SF-268, 48 h, read-out: GI
NCI-H226 [2] = assay: Anticancer activity against Homo sapiens (human) NCI-H226 cells after 48 hr by SRB assay; conditions: NCI-H226, 48 h; for CC50: read-out: LC50 (the source's name)
RPMI-8226 = assay: Growth inhibition of Homo sapiens (human) RPMI8226 cells at 10 uM after 48 hr by SRB assay; conditions: RPMI-8226, 48 h, read-out: GI
A498 = assay: Growth inhibition of Homo sapiens (human) A498 cells at 10 uM after 48 hr by SRB assay; conditions: A498, 48 h, read-out: GI
MDA-MB-231 = assay: Growth inhibition of Homo sapiens (human) MDA-MB-231/ATCC cells at 10 uM after 48 hr by SRB assay; conditions: MDA-MB-231, 48 h, read-out: GI
NCI/ADR-RES = assay: Growth inhibition of Homo sapiens (human) NCI/ADR-RES cells at 10 uM after 48 hr by SRB assay; conditions: read-out: GI
COLO 205 = assay: Growth inhibition of Homo sapiens (human) COLO205 cells at 10 uM after 48 hr by SRB assay; conditions: COLO 205, 48 h, read-out: GI
SK-MEL-5 = assay: Growth inhibition of Homo sapiens (human) SK-MEL-5 cells at 10 uM after 48 hr by SRB assay; conditions: SK-MEL-5, 48 h, read-out: GI
OVCAR-5 = assay: Growth inhibition of Homo sapiens (human) OVCAR5 cells at 10 uM after 48 hr by SRB assay; conditions: OVCAR-5, 48 h, read-out: GI

SMILES	inhibition of growth at 10 µM (OVCAR-4) [%]	GI50 (IGROV-1) [µM]	LC50 (50% lethal concentration) (IGROV-1) [µM]	TGI (IGROV-1) [µM]	inhibition of growth at 10 µM (786-0) [%]	GI50 (MCF7) [µM]	TGI (MCF7) [µM]	CC50 (MCF7) [µM]	inhibition of growth at 10 µM (NCI-H322M) [%]	inhibition of growth at 10 µM (HL-60(TB)) [%]	inhibition of growth at 10 µM (CAKI-1) [%]	inhibition of growth at 10 µM (NCI-H522) [%]	inhibition of growth at 10 µM (EKVX) [%]	inhibition of growth at 10 µM (SK-MEL-28) [%]	inhibition of growth at 10 µM (SK-MEL-2) [%]	inhibition of growth at 10 µM (UACC-257) [%]	inhibition of growth at 10 µM (SF-268) [%]	GI50 (NCI-H226 [2]) [µM]	TGI (NCI-H226 [2]) [µM]	CC50 (NCI-H226 [2]) [µM]	further results
COc1ccc(OC)c(/C=C/c2nnc(Nc3ccc(Cl)cc3)o2)c1	116	7.7	> 100	> 100	72.1	20.7	> 100	> 100	41.4	–	–	–	–	–	–	–	–	–	–	–	inhibition of growth at 10 µM (NCI-H226 [1]): 43.9%
COc1ccc(OC)c(/C=C/c2nnc(S)n2-c2ccc(Cl)cc2)c1	–	4.38	> 100	> 100	41.1	4.44	> 100	> 100	–	95.7	–	–	–	–	–	–	–	–	–	–	inhibition of growth at 10 µM (SR): 61.7%
COc1ccc(OC)c(/C=C/C(=O)N/N=C/c2ccc(Cl)cc2)c1	59.8	0.187	> 100	62.9	83.3	0.0743	32.5	> 100	58.7	79.9	58.2	136	56.9	61.2	77.7	47	66.8	0.979	> 100	> 100	inhibition of growth at 10 µM (DU-145): 85.2%; inhibition of growth at 10 µM (RPMI-8226): 78.7%; inhibition of growth at 10 µM (A498): 87.5%; inhibition of growth at 10 µM (MDA-MB-231): 71.9%; inhibition of growth at 10 µM (NCI/ADR-RES): 96.2%; inhibition of growth at 10 µM (COLO 205): 149%; inhibition of growth at 10 µM (SK-MEL-5): 69.4%; inhibition of growth at 10 µM (OVCAR-5): 71.6%
COc1ccc(OC)c(/C=C/C(=O)N/N=C/c2ccccc2)c1	–	1.51	> 100	> 100	45.7	3.79	> 100	> 100	–	53.6	52.2	115	36	34.5	101	48.7	39.3	30.8	> 100	> 100	inhibition of growth at 10 µM (RPMI-8226): 45.6%; inhibition of growth at 10 µM (A498): 61.3%; inhibition of growth at 10 µM (NCI/ADR-RES): 91.5%; inhibition of growth at 10 µM (COLO 205): 57.2%; inhibition of growth at 10 µM (SK-MEL-5): 69.2%
